# Test results from patent US11365194B2, “Analgesic drug using PAC1 receptor antagonistic drug” (KAGOSHIMA UNIVERSITY, priority 2017, dated 2022).
# Experiments:
# [1] = Non Patent Literature 4; cited from earlier work
# [2] = tested on: cold allodynia induced by oxaliplatin; experiment: Cold allodynia induced by oxaliplatin, drug on fourth day after oxaliplatin (acetone test); assay type: in vivo, mouse; conditions: 10 mg/kg, single oral administration, fourth day after oxaliplatin
# Experimental: Oxaliplatin was dissolved in 5% glucose-containing saline and intraperitoneally administered at a dose of 2 mg/kg. A drug was administered on the fourth day after oxaliplatin administration. Male ddY mice (6 to 12 weeks old) were used. The axis of ordinates is the duration of the behavior of licking and paw waving after the application of an acetone drop (10 L) to the footpad of a hind paw.
# [3] = biological target: T1, mouse PAC receptor-expressing CHO cell (PAC1/CHO cell) (Mus musculus, UniProt P70205); experiment: CREB phosphorylation by PACAP stimulus, Western blot, PAC1/CHO cell; assay type: cell-based
# T1 construct: expressed in transfected cells; host or cells: CHO cells
# T1 sequence (P70205 21-496): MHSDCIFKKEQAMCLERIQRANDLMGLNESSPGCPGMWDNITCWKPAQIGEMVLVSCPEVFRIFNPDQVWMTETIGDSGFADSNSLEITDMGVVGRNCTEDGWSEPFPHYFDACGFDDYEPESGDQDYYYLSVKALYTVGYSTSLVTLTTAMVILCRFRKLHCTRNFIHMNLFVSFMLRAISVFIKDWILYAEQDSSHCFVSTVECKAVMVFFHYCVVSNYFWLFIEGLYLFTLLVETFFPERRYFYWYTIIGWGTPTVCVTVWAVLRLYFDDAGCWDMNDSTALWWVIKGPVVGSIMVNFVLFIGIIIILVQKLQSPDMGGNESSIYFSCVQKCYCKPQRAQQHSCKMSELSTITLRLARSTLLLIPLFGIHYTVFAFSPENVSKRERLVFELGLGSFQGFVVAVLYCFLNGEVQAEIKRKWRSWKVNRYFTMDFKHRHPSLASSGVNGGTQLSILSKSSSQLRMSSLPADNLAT
# Experimental: (§1) The effect of each compound on the phosphorylation of CREB (cAMP-responsive element-binding protein) produced by a PACAP stimulus was examined by Western blot analysis using an anti-phosphorylated CREB (pCREB) antibody with a mouse PAC receptor-expressing CHO cell (PAC1/CHO cell) and a mouse VPAC1 receptor-expressing CHO cell (VPAC1/CHO cell).
# (§2) Specifically, treatment with a compound (PA-8, PA-9, compounds 2j, 20 and 3d) at 10 μM to 10 nM or a solvent therefor (VEH: 0.1% DMSO-containing phosphate buffer solution) was performed for 30 minutes, 1 nM PACAP was then added, and protein was recovered within 30 minutes after a PACAP stimulus.
# [4] = tested on: mechanical allodynia induced by spinal nerve injury; experiment: Spinal nerve ligation (SNL) model, i.t. administration on 14th day, mechanical allodynia; assay type: in vivo, mouse; conditions: 100 pmol i.t. on 14th day after operation
# Experimental: (§3) Male ddY mice (6 to 12 weeks old) were used, and the threshold to a mechanical stimulus was evaluated by the vonFrey test. Specifically, the 50% withdrawal reflex threshold (Threshold) was calculated in accordance with the method of Chaplan et al. (Chaplan et al., J. Neurosci. Meth. 53, 55-63, 1994). Each compound was dissolved in 99.7% DMSO, and then the resulting solution was diluted with an artificial cerebrospinal fluid for preparation (final concentration of DMSO was 0.2%).
# Spinal nerve ligation (SNL) models in which the fourth lumbar cord spinal nerves of male ddY (6 to 12 weeks old) were ligated with silk thread were used. The i.t. administration of a solvent (VEH: 10% DMSO-containing saline), PA-8, the compound 2j or the compound 2o (FIG. 9A), or PA-9 or the compound 3d (FIG. 9B) was performed on the 14th day after the operation. The method of causing a mechanical stimulus is the same as that of Example 5, and data were acquired for 24 hours after i.t. administration over time.
# [5] = tested on: mechanical allodynia induced by PACAP intrathecal administration; experiment: Mechanical allodynia induced by PACAP intrathecal administration (von Frey test); assay type: in vivo, mouse; conditions: 10 or 100 pmol, simultaneous i.t.; FIGS. 5A and B
# Experimental: When single i.t. administration of PACAP (100 pmol/5 L) to mouse was performed, mechanical stimulus sensitive phenomenon (mechanical allodynia) occurred over a long period of time (for at least three months after the administration) (Non Patent Literature 1). […] The mechanical sensitive phenomenon induced by PACAP was not suppressed in an example in which a solvent (VEH: 0.2% DMSO-containing artificial cerebrospinal fluid) was used instead of the compounds.
# as §3
# [6] = biological target: T2, mouse VPAC1 receptor-expressing CHO cell (VPAC1/CHO cell) (Mus musculus, UniProt P97751); experiment: CREB phosphorylation by PACAP stimulus, Western blot, VPAC1/CHO cell; assay type: cell-based; conditions: compound 10 μM to 10 nM
# T2 construct: expressed in transfected cells; host or cells: CHO cells
# T2 sequence (P97751 31-459): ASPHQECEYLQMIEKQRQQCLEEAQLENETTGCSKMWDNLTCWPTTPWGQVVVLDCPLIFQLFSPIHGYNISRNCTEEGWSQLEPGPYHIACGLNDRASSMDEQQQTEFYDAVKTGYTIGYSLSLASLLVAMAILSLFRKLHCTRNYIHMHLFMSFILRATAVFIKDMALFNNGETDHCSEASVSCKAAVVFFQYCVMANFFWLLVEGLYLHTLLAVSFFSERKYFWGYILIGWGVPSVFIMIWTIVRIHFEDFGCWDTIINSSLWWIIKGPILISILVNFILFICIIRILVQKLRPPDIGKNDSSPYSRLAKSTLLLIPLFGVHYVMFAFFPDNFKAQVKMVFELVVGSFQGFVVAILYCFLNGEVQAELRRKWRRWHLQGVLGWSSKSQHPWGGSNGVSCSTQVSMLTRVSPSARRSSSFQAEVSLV
# Experimental: as §1, §2
# PAC1 receptor = biological target: T3, PAC1 receptor (Homo sapiens, UniProt P41586); conditions: Non Patent Literature 3; cited from earlier work
# T3 sequence (P41586 21-468): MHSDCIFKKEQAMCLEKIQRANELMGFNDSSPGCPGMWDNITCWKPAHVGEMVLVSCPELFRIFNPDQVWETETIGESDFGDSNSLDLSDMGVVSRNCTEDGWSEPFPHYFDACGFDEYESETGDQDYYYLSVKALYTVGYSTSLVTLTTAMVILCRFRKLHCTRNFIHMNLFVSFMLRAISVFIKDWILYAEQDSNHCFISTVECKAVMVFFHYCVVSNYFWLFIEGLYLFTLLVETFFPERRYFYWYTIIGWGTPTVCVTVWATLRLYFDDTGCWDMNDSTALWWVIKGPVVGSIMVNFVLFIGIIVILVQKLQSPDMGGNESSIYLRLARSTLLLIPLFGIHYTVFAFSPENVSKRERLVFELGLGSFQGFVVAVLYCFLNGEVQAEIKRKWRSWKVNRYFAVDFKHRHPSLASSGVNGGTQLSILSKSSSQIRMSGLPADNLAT
smiles,measurement,setting,value
"C=CCOc1ccc(C2CC(=O)Nc3nc(N)[nH]c(=O)c32)cc1OC (centres unmarked) [PA-8, reference compound]",analgesic effect,[1],have analgesic effect
same,suppression of cold allodynia by oxaliplatin,[2],suppressed cold allodynia by oxaliplatin significantly over 4 to 5 hours
same,suppression of CREB phosphorylation by PACAP (1 nM),"[3]; PAC1/CHO cell, compound 10 μM to 10 nM, 30 minutes before 1 nM PACAP",suppressed CREB phosphorylation by PACAP (1 nM)
same,receptor selectivity (PAC1 versus VPAC1),[3]; concluded from PAC1/CHO and VPAC1/CHO data,PAC1 receptor selective antagonistic drug
same,anti-mechanical allodynia effect,[4],suppressed the onset of mechanical allodynia significantly
same,suppression of long-term mechanical allodynia induced by PACAP,[5],strongly suppressed
same,suppression of CREB phosphorylation by PACAP (1 nM),[6],did not suppress CREB phosphorylation by PACAP (1 nM)
same,PAC1 receptor antagonistic action,PAC1 receptor,have PAC1 receptor antagonistic action
